Source: patent publication US12660819B2, “Herbicidal derivatives” (SYNGENTA CROP PROTECTION AG, priority 2020, dated 2026)

What was measured:
Assay type in all cases: in vivo
[1] = system: Abutilon theophrasti (ABUTH); test: Pre-emergence Test (glasshouse, percentage damage to the plant); conditions: 1000 g/ha unless otherwise stated; for percentage damage to the plant, ABUTH: five-point scale; for percentage damage to the plant, ABUTH (five-point scale): Abutilon theophrasti
[2] = system: Zea mays (ZEAMX); test: Post-emergence Test (glasshouse, percentage damage to the plant); conditions: 1000 g/ha unless otherwise stated, evaluated after 13 days; for Post-emergence Test ZEAMX, percentage damage to the plant (five-point scale): post-emergence spray; for ZEAMX, percentage damage caused to the plant (five-point scale): post-emergence
How it was run: (§1)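 Damage was rated 13 days after treatment and expressed on a five-point scale: 5=81-100%, 4=61-80%, 3=41-60%, 2=21-40%, 1=0-20%. Spray was applied at 1000 g/ha unless otherwise stated, from acetone/water (50:50) with 0.5% Tween 20, to sown pots.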

[3] = system: Ipomoea hederacea (IPOHE); test: as above; conditions: 1000 g/ha unless otherwise stated, evaluated after 13 days; for Post-emergence Test IPOHE, percentage damage to the plant (five-point scale): post-emergence spray; for IPOHE, percentage damage caused to the plant (five-point scale): post-emergence
How it was run: as §1

[4] = system: Amaranthus retoflexus (AMARE); test: as above; conditions: 1000 g/ha unless otherwise stated, evaluated after 13 days; for Post-emergence Test AMARE, percentage damage to the plant (five-point scale): post-emergence spray; for AMARE, percentage damage caused to the plant (five-point scale): post-emergence
How it was run: as §1

[5] = system: Abutilon theophrasti (ABUTH); test: as above; conditions: 1000 g/ha unless otherwise stated, evaluated after 13 days; for Post-emergence Test ABUTH, percentage damage to the plant (five-point scale): post-emergence spray; for ABUTH, percentage damage caused to the plant (five-point scale): post-emergence
How it was run: as §1

[6] = system: Echinochloa crus-galli (ECHCG); test: as above; conditions: post-emergence spray, 1000 g/ha unless otherwise stated, evaluated after 13 days
How it was run: as §1

[7] = system: Setaria faberi (SETFA); test: as above; conditions: 1000 g/ha unless otherwise stated, evaluated after 13 days; for Post-emergence Test SETFA, percentage damage to the plant (five-point scale): post-emergence spray; for SETFA, percentage damage caused to the plant (five-point scale): post-emergence
How it was run: as §1

[8] = system: Echinochloa crus-galli (ECHCG); test: Pre-emergence Test (glasshouse, percentage damage to the plant); conditions: 1000 g/ha unless otherwise stated; for percentage damage to the plant, ECHCG: five-point scale; for percentage damage to the plant, ECHCG (five-point scale): Echinochloa crus-galli
[9] = system: Zea mays (ZEAMX); test: as above; conditions: 1000 g/ha unless otherwise stated; for percentage damage to the plant, ZEAMX: five-point scale; for percentage damage to the plant, ZEAMX (five-point scale): Zea mays
[10] = system: Amaranthus retoflexus (AMARE); test: as above; conditions: 1000 g/ha unless otherwise stated; for percentage damage to the plant, AMARE: five-point scale; for percentage damage to the plant, AMARE (five-point scale): Amaranthus retoflexus
[11] = system: Ipomoea hederacea (IPOHE); test: as above; conditions: 1000 g/ha unless otherwise stated; for percentage damage to the plant, IPOHE: five-point scale; for percentage damage to the plant, IPOHE (five-point scale): Ipomoea hederacea
[12] = system: Setaria faberi (SETFA); test: as above; conditions: 1000 g/ha unless otherwise stated; for percentage damage to the plant, SETFA: five-point scale; for percentage damage to the plant, SETFA (five-point scale): Setaria faberi

| Structure (SMILES) | Post-emergence Test ZEAMX, percentage damage to the plant (five-point scale) [2] | Post-emergence Test IPOHE, percentage damage to the plant (five-point scale) [3] | Post-emergence Test AMARE, percentage damage to the plant (five-point scale) [4] | Post-emergence Test ABUTH, percentage damage to the plant (five-point scale) [5] | Post-emergence Test SETFA, percentage damage to the plant (five-point scale) [7] | percentage damage to the plant, ECHCG [8] | percentage damage to the plant, ZEAMX [9] | percentage damage to the plant, AMARE [10] | percentage damage to the plant, IPOHE [11] | percentage damage to the plant, SETFA [12] | ZEAMX, percentage damage caused to the plant (five-point scale) [2] | IPOHE, percentage damage caused to the plant (five-point scale) [3] | AMARE, percentage damage caused to the plant (five-point scale) [4] | ABUTH, percentage damage caused to the plant (five-point scale) [5] | SETFA, percentage damage caused to the plant (five-point scale) [7] | percentage damage to the plant, ECHCG (five-point scale) [8] | percentage damage to the plant, ZEAMX (five-point scale) [9] | percentage damage to the plant, AMARE (five-point scale) [10] | percentage damage to the plant, IPOHE (five-point scale) [11] | percentage damage to the plant, SETFA (five-point scale) [12] | other results |
| --- | --- | --- | --- | --- | --- | --- | --- | --- | --- | --- | --- | --- | --- | --- | --- | --- | --- | --- | --- | --- | --- |
| CCn1c(C)c(-c2ccnc(OC)c2)c(=O)c(C(=O)O)c1-c1ccc(Cl)c(Cl)c1 [Compound 53, 2-(3,4-dichlorophenyl)-1-ethyl-5-(2-methoxy-4-pyridyl)-6-methyl-4-oxo-pyridine-3-carboxylic acid] | 2 (2=21-40%) | 2 (2=21-40%) | 3 (3=41-60%) | 4 (4=61-80%) | 4 (4=61-80%) | 3 (3=41-60%) | 1 (1=0-20%) | 1 (1=0-20%) | 3 (3=41-60%) | 4 (4=61-80%) |  |  |  |  |  |  |  |  |  |  | percentage damage to the plant, ABUTH [1]: 3 (3=41-60%); Post-emergence Test ECHCG, percentage damage to the plant (five-point scale) [6]: 3 (3=41-60%) |
| CCn1c(C)c(-c2ccc(C(C)(C)C)cc2)c(=O)c(C(=O)O)c1-c1ccc(Cl)c(Cl)c1 [Compound 55, 5-(4-tert-butylphenyl)-2-(3,4-dichlorophenyl)-1-ethyl-6-methyl-4-oxo-pyridine-3-carboxylic acid] | 1 (1=0-20%) | 1 (1=0-20%) | 1 (1=0-20%) | 1 (1=0-20%) | 1 (1=0-20%) | 1 (1=0-20%) | 1 (1=0-20%) | 1 (1=0-20%) | 1 (1=0-20%) | 1 (1=0-20%) |  |  |  |  |  |  |  |  |  |  | percentage damage to the plant, ABUTH [1]: 1 (1=0-20%); Post-emergence Test ECHCG, percentage damage to the plant (five-point scale) [6]: 1 (1=0-20%) |
| CCn1c(C)c(-c2ccc(Cl)cc2)c(=O)c(C(=O)O)c1-c1ccc(Br)cc1F [Compound 133, 2-(4-bromo-2-fluoro-phenyl)-5-(4-chlorophenyl)-1-ethyl-6-methyl-4-oxo-pyridine-3-carboxylic acid] | 1 (1=0-20%) | 3 (3=41-60%) | 4 (4=61-80%) | 2 (2=21-40%) | 1 (1=0-20%) | 4 (4=61-80%) | 2 (2=21-40%) | 2 (2=21-40%) | 2 (2=21-40%) | 5 (5=81-100%) |  |  |  |  |  |  |  |  |  |  | percentage damage to the plant, ABUTH [1]: 3 (3=41-60%) |
| CCn1c(C)c(-c2ccc(F)cc2OC)c(=O)c(C(=O)OC)c1-c1ccc(Cl)c(Cl)c1 [Compound 164, methyl 2-(3,4-dichlorophenyl)-1-ethyl-5-(4-fluoro-2-methoxy-phenyl)-6-methyl-4-oxo-pyridine-3-carboxylate] | 1 (1=0-20%) | 1 (1=0-20%) | 1 (1=0-20%) | 1 (1=0-20%) | 1 (1=0-20%) | 0 | 0 | 0 | 0 | 0 |  |  |  |  |  |  |  |  |  |  | Post-emergence Test ECHCG, percentage damage to the plant (five-point scale) [6]: 0 |
| CCn1c(C)c(-c2ccc(F)cc2F)c(=O)c(C(=O)O)c1-c1ccc(Cl)cc1 [Compound 192, 2-(4-chlorophenyl)-5-(2,4-difluorophenyl)-1-ethyl-6-methyl-4-oxo-pyridine-3-carboxylic acid] | 2 (2=21-40%) | 2 (2=21-40%) | 2 (2=21-40%) | 4 (4=61-80%) | 4 (4=61-80%) | 2 (2=21-40%) | 0 | 1 (1=0-20%) | 1 (1=0-20%) | 2 (2=21-40%) |  |  |  |  |  |  |  |  |  |  | percentage damage to the plant, ABUTH [1]: 2 (2=21-40%) |
| CCn1c(C)c(-c2ccc(Cl)c(F)c2)c(=O)c(C(=O)O)c1-c1ccc(Cl)cc1 [Compound 201, 5-(4-chloro-3-fluoro-phenyl)-2-(4-chlorophenyl)-1-ethyl-6-methyl-4-oxo-pyridine-3-carboxylic acid] |  |  |  |  |  |  |  |  |  |  | 2 (2=21-40%) | 1 (1=0-20%) | 2 (2=21-40%) | 4 (4=61-80%) | 3 (3=41-60%) | 3 (3=41-60%) | 0 | 1 (1=0-20%) | 0 | 3 (3=41-60%) | percentage damage to the plant, ABUTH (five-point scale) [1]: 2 (2=21-40%) |
| CCn1c(CCOC)c(-c2ccc(Cl)cc2)c(=O)c(C(=O)OC)c1-c1ccc(Cl)c(Cl)c1 [Compound 202, methyl 5-(4-chlorophenyl)-2-(3,4-dichlorophenyl)-1-ethyl-6-(2-methoxyethyl)-4-oxo-pyridine-3-carboxylate] |  |  |  |  |  |  |  |  |  |  | 1 (1=0-20%) | 1 (1=0-20%) | 0 | 0 | 0 | 0 | 0 | 0 | 0 | 0 | percentage damage to the plant, ABUTH (five-point scale) [1]: 0 |
| CCn1c(CCOC)c(-c2ccc(Cl)cc2)c(=O)c(C(=O)O)c1-c1ccc(Cl)c(Cl)c1 [Compound 203, 5-(4-chlorophenyl)-2-(3,4-dichlorophenyl)-1-ethyl-6-(2-methoxyethyl)-4-oxo-pyridine-3-carboxylic acid] |  |  |  |  |  |  |  |  |  |  | 1 (1=0-20%) | 0 | 0 | 0 | 0 | 1 (1=0-20%) | 0 | 0 | 0 | 0 |  |
| CCn1c(-c2ccc(Cl)c(Cl)c2)c(C(=O)O)c(=O)c(-c2ccc(Cl)cc2)c1C(F)F [Compound 204, 5-(4-chlorophenyl)-2-(3,4-dichlorophenyl)-6-(difluoromethyl)-1-ethyl-4-oxo-pyridine-3-carboxylic acid] |  |  |  |  |  |  |  |  |  |  | 1 (1=0-20%) | 2 (2=21-40%) | 5 (5=81-100%) | 5 (5=81-100%) | 3 (3=41-60%) | 0 | 0 | 5 (5=81-100%) | 0 | 0 | percentage damage to the plant, ABUTH (five-point scale) [1]: 2 (2=21-40%) |
| CCn1c(-c2ccc(Cl)c(Cl)c2)c(C(=O)OC)c(=O)c(-c2ccc(Cl)cc2)c1C(F)F [Compound 205, methyl 5-(4-chlorophenyl)-2-(3,4-dichlorophenyl)-6-(difluoromethyl)-1-ethyl-4-oxo-pyridine-3-carboxylate] |  |  |  |  |  |  |  |  |  |  | 0 | 1 (1=0-20%) | 1 (1=0-20%) | 0 | 0 | 0 | 0 | 0 | 0 | 0 | percentage damage to the plant, ABUTH (five-point scale) [1]: 0 |
